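Tested at 5 concentrations; 48 h exposure; 96-well plates; endpoints linearly interpolated, else capped at highest concentration. Abbreviation: GI50, concentration required for 50% inhibition of growth. Definition used: TGI = concentration required for complete inhibition of growth.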
What was measured:
Assay in all cases: NCI anticancer screen, dose series, 48 h
786-0 renal = test system: 786-0 renal
A498 renal = test system: A498 renal
A549 NSCLC = test system: A549 NSCLC
ACHN renal = test system: ACHN renal
BT-549 breast = test system: BT-549 breast
CAKI-1 renal = test system: CAKI-1 renal
CCRF-CEM leukemia = test system: CCRF-CEM leukemia
COLO 205 colon = test system: COLO 205 colon
DU-145 prostate = test system: DU-145 prostate
EKVX NSCLC = test system: EKVX NSCLC
HCC-2998 colon = test system: HCC-2998 colon
HCT-116 colon = test system: HCT-116 colon
HCT-15 colon = test system: HCT-15 colon
HL-60(TB) leukemia = test system: HL-60(TB) leukemia
HOP-62 NSCLC = test system: HOP-62 NSCLC
HOP-92 NSCLC = test system: HOP-92 NSCLC
HS 578T breast = test system: HS 578T breast
HT29 colon = test system: HT29 colon
IGROV1 ovarian = test system: IGROV1 ovarian
K-562 leukemia = test system: K-562 leukemia
KM12 colon = test system: KM12 colon
LOX IMVI melanoma = test system: LOX IMVI melanoma
M14 melanoma = test system: M14 melanoma
MALME-3M melanoma = test system: MALME-3M melanoma
MCF7 breast = test system: MCF7 breast
MDA-MB-468 breast = test system: MDA-MB-468 breast
MOLT-4 leukemia = test system: MOLT-4 leukemia
NCI-H226 lung = test system: NCI-H226 lung
NCI-H23 lung = test system: NCI-H23 lung
NCI-H460 lung = test system: NCI-H460 lung
NCI-H522 lung = test system: NCI-H522 lung
NCI/ADR-RES ovarian = test system: NCI/ADR-RES ovarian
OVCAR-3 ovarian = test system: OVCAR-3 ovarian
OVCAR-4 ovarian = test system: OVCAR-4 ovarian
OVCAR-5 ovarian = test system: OVCAR-5 ovarian
OVCAR-8 ovarian = test system: OVCAR-8 ovarian
PC-3 prostate = test system: PC-3 prostate
RPMI-8226 leukemia = test system: RPMI-8226 leukemia
RXF 393 renal = test system: RXF 393 renal
SF-268 CNS = test system: SF-268 CNS
SF-295 CNS = test system: SF-295 CNS
SK-MEL-28 melanoma = test system: SK-MEL-28 melanoma
SK-MEL-5 melanoma = test system: SK-MEL-5 melanoma
SK-OV-3 ovarian = test system: SK-OV-3 ovarian
SN12C renal = test system: SN12C renal
SNB-19 CNS = test system: SNB-19 CNS
SR leukemia = test system: SR leukemia
SW-620 colon = test system: SW-620 colon
T-47D breast = test system: T-47D breast
TK-10 renal = test system: TK-10 renal
U251 CNS = test system: U251 CNS
UACC-257 melanoma = test system: UACC-257 melanoma
UACC-62 melanoma = test system: UACC-62 melanoma

With `CC(=O)Nc1ccc(-n2cnc3cc(-c4ccc(O)cc4)ccc32)cc1F` the GI50 (786-0 renal) was 6.8 µM, the TGI (786-0 renal) was > 100 µM and the GI50 (A498 renal) was > 100 µM. The TGI (A498 renal) was > 100 µM, the GI50 (A549 NSCLC) was 4.77 µM and the TGI (A549 NSCLC) was > 100 µM. For the same compound, the GI50 (ACHN renal) was 6.33 µM, the TGI (ACHN renal) was > 100 µM and the GI50 (BT-549 breast) was 27 µM. For the same compound, the TGI (BT-549 breast) was > 100 µM, the GI50 (CAKI-1 renal) was > 100 µM and the TGI (CAKI-1 renal) was > 100 µM. For the same compound, the GI50 (CCRF-CEM leukemia) was 3.01 µM, the TGI (CCRF-CEM leukemia) was > 100 µM and the GI50 (COLO 205 colon) was 3.47 µM. For the same compound, the TGI (COLO 205 colon) was > 100 µM, the GI50 (DU-145 prostate) was 4.33 µM and the TGI (DU-145 prostate) was > 100 µM. The GI50 (EKVX NSCLC) was 6.04 µM, the TGI (EKVX NSCLC) was > 100 µM and the GI50 (HCC-2998 colon) was 5.6 µM. For the same compound, the TGI (HCC-2998 colon) was > 100 µM, the GI50 (HCT-116 colon) was 4.21 µM and the TGI (HCT-116 colon) was > 100 µM. The GI50 (HCT-15 colon) was 0.831 µM, the TGI (HCT-15 colon) was > 100 µM and the GI50 (HL-60(TB) leukemia) was 1.23 µM. For the same compound, the TGI (HL-60(TB) leukemia) was 3.85 µM, the GI50 (HOP-62 NSCLC) was 4.53 µM and the TGI (HOP-62 NSCLC) was > 100 µM. For the same compound, the GI50 (HOP-92 NSCLC) was 23.2 µM, the TGI (HOP-92 NSCLC) was > 100 µM and the GI50 (HS 578T breast) was 2.61 µM. For the same compound, the TGI (HS 578T breast) was > 100 µM, the GI50 (HT29 colon) was 3.86 µM and the TGI (HT29 colon) was > 100 µM. The GI50 (IGROV1 ovarian) was 6.21 µM, the TGI (IGROV1 ovarian) was > 100 µM and the GI50 (K-562 leukemia) was 0.496 µM. For the same compound, the TGI (K-562 leukemia) was > 100 µM, the GI50 (KM12 colon) was 3.22 µM and the TGI (KM12 colon) was > 100 µM. For the same compound, the GI50 (LOX IMVI melanoma) was 6.43 µM, the TGI (LOX IMVI melanoma) was > 100 µM and the GI50 (M14 melanoma) was 3.39 µM. The TGI (M14 melanoma) was > 100 µM, the GI50 (MALME-3M melanoma) was 3.35 µM and the TGI (MALME-3M melanoma) was > 100 µM. The GI50 (MCF7 breast) was 2.45 µM, the TGI (MCF7 breast) was > 100 µM and the GI50 (MDA-MB-468 breast) was 1.25 µM. The TGI (MDA-MB-468 breast) was 4.68 µM, the GI50 (MOLT-4 leukemia) was 2.67 µM and the TGI (MOLT-4 leukemia) was > 100 µM. For the same compound, the GI50 (NCI-H226 lung) was 83.2 µM, the TGI (NCI-H226 lung) was > 100 µM and the GI50 (NCI-H23 lung) was 4.77 µM. The TGI (NCI-H23 lung) was > 100 µM, the GI50 (NCI-H460 lung) was 3.38 µM and the TGI (NCI-H460 lung) was > 100 µM. For the same compound, the GI50 (NCI-H522 lung) was 1.63 µM, the TGI (NCI-H522 lung) was 4.14 µM and the GI50 (NCI/ADR-RES ovarian) was 2.78 µM. For the same compound, the TGI (NCI/ADR-RES ovarian) was > 100 µM, the GI50 (OVCAR-3 ovarian) was 3.06 µM and the TGI (OVCAR-3 ovarian) was > 100 µM. For the same compound, the GI50 (OVCAR-4 ovarian) was > 100 µM, the TGI (OVCAR-4 ovarian) was > 100 µM and the GI50 (OVCAR-5 ovarian) was 6.22 µM. For the same compound, the TGI (OVCAR-5 ovarian) was > 100 µM, the GI50 (OVCAR-8 ovarian) was 3.48 µM and the TGI (OVCAR-8 ovarian) was > 100 µM. The GI50 (PC-3 prostate) was 3.66 µM, the TGI (PC-3 prostate) was > 100 µM and the GI50 (RPMI-8226 leukemia) was 3.32 µM. The TGI (RPMI-8226 leukemia) was 16.4 µM, the GI50 (RXF 393 renal) was 1.94 µM and the TGI (RXF 393 renal) was 6.14 µM. The GI50 (SF-268 CNS) was 9.66 µM, the TGI (SF-268 CNS) was > 100 µM and the GI50 (SF-295 CNS) was 3.34 µM. For the same compound, the TGI (SF-295 CNS) was > 100 µM, the GI50 (SK-MEL-28 melanoma) was 29.7 µM and the TGI (SK-MEL-28 melanoma) was > 100 µM. For the same compound, the GI50 (SK-MEL-5 melanoma) was 4.09 µM, the TGI (SK-MEL-5 melanoma) was > 100 µM and the GI50 (SK-OV-3 ovarian) was 5.05 µM. For the same compound, the TGI (SK-OV-3 ovarian) was > 100 µM, the GI50 (SN12C renal) was 5.8 µM and the TGI (SN12C renal) was > 100 µM. The GI50 (SNB-19 CNS) was 4.73 µM, the TGI (SNB-19 CNS) was > 100 µM and the GI50 (SR leukemia) was 0.377 µM. For the same compound, the TGI (SR leukemia) was 27 µM, the GI50 (SW-620 colon) was 3.01 µM and the TGI (SW-620 colon) was > 100 µM. The GI50 (T-47D breast) was 4.02 µM, the TGI (T-47D breast) was > 100 µM and the GI50 (TK-10 renal) was 49.5 µM. For the same compound, the TGI (TK-10 renal) was > 100 µM, the GI50 (U251 CNS) was 3.19 µM and the TGI (U251 CNS) was > 100 µM. The GI50 (UACC-257 melanoma) was 21.5 µM, the TGI (UACC-257 melanoma) was > 100 µM and the GI50 (UACC-62 melanoma) was 2.55 µM. The TGI (UACC-62 melanoma) was > 100 µM.

— PubChem BioAssay (NCI)
